This note sets out measurements from publication PMC6949291, “An evolutionarily conserved iron-sulfur cluster underlies redox sensory function of the Chloroplast Sensor Kinase” (Communications Biology, 2020).

The target of data set [1] is T1, Syn-CSK (Hik2) (Synechocystis sp. PCC 6803, UniProt P73276).
T1 construct: octamer
The data set can be described thus: autophosphorylation, autoradiography. The format is biochemical. The settings on record: 0.5 mM, MgCl2, pH 8, 22 °C, reductant of the [3Fe-4S] cluster, inhibitor of autokinase activity.

Data set [2] deals with the molecule itself. The data set can be described thus: SEC; Superdex 200 10/300GL Increase; air-oxidized protein eluted with 20 mM Tris-HCl pH 8 and 10 mM NaCl (legend; methods say 20 mM NaCl), or the same buffer with 2 mM sodium dithionite; mass from a calibration curve.

Take `Cc1c(C)c(O)c(C)c(C)c1O` [duroquinol]: in data set [1], the “autophosphorylation with [γ-^32P]ATP, autoradiography” value was “Treatment with reducing agents: dithionite, duroquinol, or decylPQH2 inhibit Syn-CSK”.

B1: Synechocystis sp. PCC 6803 Histidine kinase 2 (Hik2), reconstituted holoprotein (enzyme, UniProt P73276 1-434, looked up)
chain: MAGSISSMYSPSAGLISLCQSQVRLLQQGLRVDWCGVYLNQEETEQGLVPLVVSHGSTLVESESYGLISLPQGEVSPPMDDFSLPAVPVGVGQLSRRSRLEPPPFDADKRLVLPLVYGEEMVGLLVIHRSQGQWHGEEMMQLEAIAKSLAVACLLDQQQDWYRQAWEEQNQQYQWERQHWADLLHQLRNPLTALKTFSKLLLKRWHGDNKSQQVVEGIVRQGEHLQELLQSFEASQSQGPEAVPLLSSSPVTTIQVLPPADRVETMPLANFSLGEVLPPILLAHQAIAAERNITLTAQIALIDTVVMANRLALREVVNNLLDNGIKYTPNGGLVEVSLALEKVSSSGMDWATLAIADTGYGIPPEDQQKIFERNYRGVQGRGSINGTGLGLAIVADLVAQMGGKITVTSPNGLSRDPDQPGSTFTLWLRSGEQV
notes: Histidine kinase 2 (Hik2, slr1147), the cyanobacterial CSK homologue, Synechocystis sp; Each monomer carries one [3Fe-4S] cluster (holoprotein after reconstitution with iron and sulfide); also called Syn-CSK; holoSyn-CSK
Consider B1, for which, in data set [2], the “stoichiometry N” value worked out at 8.
